These results are taken from patent US6352995B1, “Spiro-quinuclidine derivatives, their preparation and use” (Neurosearch A/S, priority 1997, dated 2002).

Broadly, the IC50 is the concentration that gives 50% inhibition. In general, melting point refers to the temperature of the solid-liquid transition.

Read-outs that look alike come from different tables or passages of the source.

The target of data set [1] is nAChRs comprised of α4 and β2 subunits (3H-cytisine binding, cerebral cortex homogenate) (Rattus norvegicus, UniProt P09483+P12390). The data set can be described thus: In vitro inhibition of 3H-cytisine binding. On the procedure:
In Vitro Inhibition of 3H-cytisine Binding
The predominant subtype with high affinity for nicotine is comprised of α4 and β2 subunits. nAChRs of the latter type can selectively be labelled by the nicotine agonist ^3H-cytisine.
Tissue Preparation: Preparations are performed at 0-4° C. unless otherwise indicated. […] The homogenate is centrifuged at 27,000×g for 10 min. The supernatant is discarded and the pellet is resuspended in fresh buffer and centrifuged a second time. The final pellet is resuspended in fresh buffer (35 ml per g of original tissue) and used for binding assays.
Assay: Aliquots of 500 μl homogenate are added to 25 μl of test solution and 25 μl of ^3H-cytisine (1 nM, final concentration), mixed and incubated for 90 min at 2° C. Non-specific binding is determined using (−)-nicotine (100 μM, final concentration). After incubation the samples are added 5 ml of ice-cold buffer and poured directly onto Whatman GF/C glass fibre filters under suction and immediately washed with 2×5 ml ice-cold buffer. The amount of radioactivity on the filters is determined by conventional liquid scintillation counting. Specific binding is total binding minus non-specific binding.
Results are given as IC50 values; the concentration (μM) that inhibit binding of the radioactive ligand by 50 %.

For data set [2], the target named is nAChR formed by the α7 subunit (3H-α-bungarotoxin binding, cerebral cortex homogenate) (Rattus norvegicus, UniProt Q05941). Briefly: biochemical.
Sequence of nAChR formed by the α7 subunit (3H-α-bungarotoxin binding, cerebral cortex homogenate) (Q05941 23-502): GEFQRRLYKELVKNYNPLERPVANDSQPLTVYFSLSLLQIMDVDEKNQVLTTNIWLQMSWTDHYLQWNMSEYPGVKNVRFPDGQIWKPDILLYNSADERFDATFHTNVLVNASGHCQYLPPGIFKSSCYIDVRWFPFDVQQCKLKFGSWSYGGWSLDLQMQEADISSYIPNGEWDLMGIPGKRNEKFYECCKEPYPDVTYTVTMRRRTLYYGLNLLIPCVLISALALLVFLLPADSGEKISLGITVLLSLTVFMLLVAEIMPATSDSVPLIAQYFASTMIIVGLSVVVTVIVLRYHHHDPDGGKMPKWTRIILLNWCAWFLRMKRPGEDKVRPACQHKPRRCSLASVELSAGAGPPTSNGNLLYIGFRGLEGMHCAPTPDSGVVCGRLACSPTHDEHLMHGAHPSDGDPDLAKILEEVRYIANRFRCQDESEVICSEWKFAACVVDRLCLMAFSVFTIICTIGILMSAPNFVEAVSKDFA
For data set [3] the following is noted: background statement; cited from earlier work.
The mark [4] stands for this setting: rat cerebral cortex, 1 nM 3H-cytisine, 90 min at 2° C., read-out: 3H-cytisine IC50.

Sequence of nAChRs comprised of α4 and β2 subunits (3H-cytisine binding, cerebral cortex homogenate) (P09483 31-630): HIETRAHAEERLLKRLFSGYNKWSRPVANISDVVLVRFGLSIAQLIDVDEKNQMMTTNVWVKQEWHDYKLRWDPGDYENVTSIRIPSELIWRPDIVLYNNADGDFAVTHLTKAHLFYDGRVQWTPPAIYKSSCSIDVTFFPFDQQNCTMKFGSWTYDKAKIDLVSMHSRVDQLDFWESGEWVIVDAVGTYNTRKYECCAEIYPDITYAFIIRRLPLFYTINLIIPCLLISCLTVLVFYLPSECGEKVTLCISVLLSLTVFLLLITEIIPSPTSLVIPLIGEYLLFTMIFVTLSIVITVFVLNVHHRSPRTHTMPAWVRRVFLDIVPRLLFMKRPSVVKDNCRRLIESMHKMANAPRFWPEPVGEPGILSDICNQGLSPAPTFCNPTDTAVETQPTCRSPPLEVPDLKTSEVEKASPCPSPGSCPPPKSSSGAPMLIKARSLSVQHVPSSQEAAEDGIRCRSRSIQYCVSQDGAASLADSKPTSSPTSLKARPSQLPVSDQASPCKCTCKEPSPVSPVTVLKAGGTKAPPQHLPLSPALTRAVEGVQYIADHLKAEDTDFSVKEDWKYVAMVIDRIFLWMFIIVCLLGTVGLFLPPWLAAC
Sequence of nAChRs comprised of α4 and β2 subunits (3H-cytisine binding, cerebral cortex homogenate) (P12390 25-500): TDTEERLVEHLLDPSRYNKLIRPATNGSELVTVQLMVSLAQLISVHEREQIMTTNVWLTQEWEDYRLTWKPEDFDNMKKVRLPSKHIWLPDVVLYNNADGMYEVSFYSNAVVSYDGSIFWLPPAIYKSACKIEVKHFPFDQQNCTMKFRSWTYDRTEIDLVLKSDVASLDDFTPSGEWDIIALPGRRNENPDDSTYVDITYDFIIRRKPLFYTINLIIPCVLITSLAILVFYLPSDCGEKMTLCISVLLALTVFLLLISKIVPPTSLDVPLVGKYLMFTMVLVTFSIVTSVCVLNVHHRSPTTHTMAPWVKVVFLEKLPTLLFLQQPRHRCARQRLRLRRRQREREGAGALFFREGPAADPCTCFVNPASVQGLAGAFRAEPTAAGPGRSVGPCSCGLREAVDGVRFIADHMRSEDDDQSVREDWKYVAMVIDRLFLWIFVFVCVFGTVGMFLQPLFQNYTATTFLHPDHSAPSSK

Turning to `CC(C)(C)c1ccc2c(c1)OC1(CN3CCC1CC3)O2` (racemic) [Compound 3a, (±)-6-t.-Butyl-spiro[benzo-1,3-dioxolane-2,3′-quinuclidine]], the melting point is 184 to 186 °C. Also, the IC50 in data set [1] (setting [4]) is greater than 10000 nM. The compound also yielded an IC50 in data set [2] of 2300 nM.
The compound `c1ccc2c(c1)OC1(CN3CCC1CC3)O2` [Compound 1a, Spiro[benzo-1,3-dioxolane-2,3-quinuclidine]] registered a melting point of 123 to 125 °C. The IC50 in data set [1] was 30000 nM. Besides, in data set [2], the IC50 worked out at 190 nM.
For the compound `Clc1ccc(C2CC3CCC2N3)cn1` (stereo not shown) [Epibatidine], the “analgesic potency relative to morphine” value in data set [3] is ~500 times that of morphine.
In the case of `Cc1ccc2c(c1)OC1(CN3CCC1CC3)O2` (racemic) [Compound 2a, (±)-6-methyl-spiro[benzo-1,3-dioxolane-2,3′-quinuclidine]], the melting point was in the range of 173 to 175 °C. Further, the IC50 in data set [1] (setting [4]) was 23000 nM. The same compound returned an IC50 in data set [2] of 180 nM.
